The values that follow come from paper PMC6828813, “Biochemical characterisation of four rhamnosidases from thermophilic bacteria of the genera Thermotoga, Caldicellulosiruptor and Thermoclostridium” (Scientific Reports, 2019).

In series [1] the target is T1, Cb_Ram106B (Caldicellulosiruptor bescii, UniProt B9MP87).
T1 construct: gene Athe_2581
In words: pNP release, absorbance at […] nm, Hill fit. The format is biochemical. Conditions: Kprime = Khalf^h, Hill coefficient h = 1.64 ± 0.20; 1 mM CoCl2, 100 mM MOPS pH 7 (RT), 70 °C.

The target of series [2] is T2, Tn_Ram106B (Thermotoga neapolitana, UniProt B9K9N8).
T2 construct: gene CTN_1495
In words: product inhibition of pNPR hydrolysis, pNP absorbance at […] nm. The format is biochemical. Conditions: read-out: Ki^b, α^b (mM rhamnose).

Series [3] has as its target T3, Tm_Ram106B (Thermotoga maritima, UniProt Q9X0G3).
T3 construct: gene TM_1074
The description is as above. The format is biochemical. Conditions: read-out: IC50 (at Km or Kprime).

The target in series [4] is T2, Tn_Ram106B. Described as above. The format is biochemical. Conditions: read-out: IC50 (at Km or Kprime).
For series [5], the target named is T4, Ts_Ram106B (Thermoclostridium stercorarium, UniProt L7VK28).
T4 construct: gene Cst_c00400
The description is as above. The format is biochemical. The conditions noted are these: read-out: Ki^b, α^b (mM rhamnose).

Series [6] has as its target T4, Ts_Ram106B. Described as above. The format is biochemical. Conditions: read-out: IC50 (at Km or Kprime).
For series [7], the target named is T3, Tm_Ram106B. The series is described as above. The format is biochemical. Conditions: read-out: Ki^b, α^b (mM rhamnose).
The target of series [8] is T1, Cb_Ram106B. The series is described as above. The format is biochemical. The conditions noted are these: read-out: IC50 (at Km or Kprime).
Substrate in series [9]: C[C@@H]1O[C@@H](Oc2ccc([N+](=O)[O-])cc2)[C@H](O)[C@H](O)[C@H]1O
In words: purified protein. The format is biochemical, Thermoclostridium stercorarium. The conditions noted are these: 1 mM CoCl2, 100 mM MOPS pH 7 (RT), 55 °C.

Substrate in series [10]: C[C@@H]1O[C@@H](Oc2ccc([N+](=O)[O-])cc2)[C@H](O)[C@H](O)[C@H]1O
In words: purified protein. The format is biochemical, Thermotoga neapolitana. Conditions: 1 mM CoCl2, 100 mM MOPS pH 7 (RT), 80 °C.

Substrate in series [11]: C[C@@H]1O[C@@H](Oc2ccc([N+](=O)[O-])cc2)[C@H](O)[C@H](O)[C@H]1O
In words: purified protein. The format is biochemical, Thermotoga maritima. Conditions: 1 mM CoCl2, 100 mM MOPS pH 7 (RT), 80 °C.

T1 sequence (B9MP87 entry or part of it): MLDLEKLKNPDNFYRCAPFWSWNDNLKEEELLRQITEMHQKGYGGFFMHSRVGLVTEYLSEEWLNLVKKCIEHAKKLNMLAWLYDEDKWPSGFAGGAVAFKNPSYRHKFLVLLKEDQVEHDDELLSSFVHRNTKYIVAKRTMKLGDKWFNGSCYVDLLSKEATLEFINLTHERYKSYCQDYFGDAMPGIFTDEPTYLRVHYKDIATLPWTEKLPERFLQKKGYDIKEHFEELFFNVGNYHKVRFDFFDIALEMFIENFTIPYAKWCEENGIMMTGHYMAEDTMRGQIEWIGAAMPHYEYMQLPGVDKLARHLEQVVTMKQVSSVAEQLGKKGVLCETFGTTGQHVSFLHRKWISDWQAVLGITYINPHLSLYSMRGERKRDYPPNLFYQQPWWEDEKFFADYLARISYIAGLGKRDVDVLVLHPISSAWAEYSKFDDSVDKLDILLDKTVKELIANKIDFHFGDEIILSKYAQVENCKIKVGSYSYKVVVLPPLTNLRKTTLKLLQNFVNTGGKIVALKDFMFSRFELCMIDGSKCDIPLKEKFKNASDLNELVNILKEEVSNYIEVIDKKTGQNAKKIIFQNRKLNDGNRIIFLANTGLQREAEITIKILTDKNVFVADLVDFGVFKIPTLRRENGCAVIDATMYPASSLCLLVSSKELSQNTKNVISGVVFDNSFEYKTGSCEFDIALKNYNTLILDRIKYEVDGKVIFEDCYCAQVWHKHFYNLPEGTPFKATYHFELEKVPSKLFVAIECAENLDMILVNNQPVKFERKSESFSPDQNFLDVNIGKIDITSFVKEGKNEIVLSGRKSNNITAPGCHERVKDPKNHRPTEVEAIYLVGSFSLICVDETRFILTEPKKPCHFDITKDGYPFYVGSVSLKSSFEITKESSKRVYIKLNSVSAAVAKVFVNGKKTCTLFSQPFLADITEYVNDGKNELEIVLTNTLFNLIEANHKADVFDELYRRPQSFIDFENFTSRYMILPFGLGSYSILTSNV

In the case of `C[C@@H]1O[C@@H](Oc2ccc([N+](=O)[O-])cc2)[C@H](O)[C@H](O)[C@H]1O` [pNPR, para-nitrophenyl-α-L-rhamnopyranoside], in series [1], the “Km or Kprime, h^b,c” value is 1290 ± 230 µM.
On to `C[C@@H]1O[C@@H](O)[C@H](O)[C@H](O)[C@H]1O` [rhamnose], for which the Ki in series [2] came to 5.5 ± 1.01 mM; in series [5], 4.94 ± 0.75 mM; in series [7] it was 2.37 ± 0.13 mM. The IC50 in series [3] worked out at 4.9 mM; in series [4] it was 6.5 mM; in series [6], 8.3 mM; in series [8] it was 5.5 mM.

B1: Ts_Ram106B (Thermoclostridium stercorarium subsp. stercorarium DSM 8532) (protein)
chain: MFFKNSREEFDESLFRNPTSEYRCAPFWAWNKKLDWEDMERHIEIFKEMGMGGFHIHSRIGLNTPYLSDEFLDYVKKCNAKAKELGMLTWLYDEDKWPSGFGGGFVTKDHNFRSRYLLFSPFYHQSGYYERHIPRENRLGIDGYLSLIAEYKVVLKNGYLSSYKRIESGDNDSAEGETWYAYRVISGDLPWFNNQAYVDTLNKKAVEKFIEVTHEKYFEILGGEFSKSVPAVFTDEPQFVLKQNLPEPDSRQEVGIPYTDLFEESFRQRFGCSFLDSLPEIFWELEGGKFSRIRYWYHEHIAELFASSFADTVGRWCREHNLMLTGHMMAESTLESQTRALGEAMRSYRSFDLPGVDILANKYEYSTVKQAQSVARQFGKAGVLSELYGVTNWDFDFRGHKLQGDWQAAMGVSVRVPHLSWLGMGGESKRDYPAPVDYHSPWYKKYHIIEDHFSRVNVCMTRGVPCVNIAVIHPIESYWLLWGPDSQTKQKRLKLQQEFESIIDWLLFSNLDFDFIAESMVKELYRGSGNRHTQFGDMKYEVLIVPELITIRSETVKMLINHLENGGKVIILGNLPKIIDGDSDRKFDIECLGECVINNSKYDLLDALEPFRQIDIVNRDSSRNENYLYQLRDEAECKWLFIAPGKPVEALKLPEEKVLTVKVRGSYEVWRYDTFTGEKQKIQARGKDGWTYFEQTAYEHDSFLYRLLKTGTNDTTEKSVSSGVGRQVNKGVKYIKYLNGPWEYRLSEKNVLLLDMARYSLDNGEISEREEVLRIDDKIRTKLGYPLRTDSFPQPWLSPAEAECPHTVKLYFEIESETDVHEAELAFEGKGVTAEWNNVAVTDRADGFFIDKCFNVMKLPGIKKGVNQLVLTVPFGEKTDLEWCFITGNFGTCVKGDKVIITNPPERLFFGDVTRQGLSFYGGNITYIVNIDVPEGEMTVEIPQYRGALVEVALDNAKKGDIIFSPYRLNLGYVSQGEHTIEITLYGNRFNMFGQLHNCNRVEKYYGPNTWRTKGNAFAYEYQLREFGIIAAPLIYIE
As for B1, in [9], the K0.5 worked out at 1.90 ± 0.18 mM and the kcat stood at 14.3 ± 0.5 s⁻¹.

B2: Tn_Ram106B (Thermotoga neapolitana DSM 4359) (protein)
chain: MNLKDLENPGVWYRPAPFWSWNDKLCEEELLRQIDEMCEKGYGGFFMHSRVGLVTEYLSDEWMALVKRCAEHARKLGMLAWLYDEDKWPSGFAGGIVPLESDEYRHRFLVLLKKEQIEPGDEILKRIERGNEELFVVKRTMKLGDPWFNGTCYVDLLSKKVTEAFIRSTHEKYRKVCGEFFGSSIPGIFTDEPTYLRVHYPEIPTLPWTDRFPEEFLKRKGYDIREHFEELFFNTKDYMKVRYDFFDVATELFIENFTIPYAKWCEENGISMTGHYMAEDTLRGQVEWIGAAMPHYEYMQIPGVDKLARHLEQVITIKQVSSVAEQLRKKWVLCETFGTTGQHVSFLHRKWIADWQAVLGITYINPHLSLYSMRGERKRDYPPNLFYQQPWWKNEKRFSDYLARLNYLMTQGKREVKVLMIHPITSAWCVYSKFDDEIDKLNESFDRTVKELVSNKIDFHFGDETILSKHGRVSGEKLVVGNCEYDIVLVPPLLNLRRSTVDLLNEFSKNGGKILVLKDGNFFPERVEGRKEKPEFLKRARVFEDLQGLIDSLRDVAAVEVIDKKTGKNAKSVIAQKRLLENGSYIIFLANTDINREVHCQLNLKEEKRHIYAIDIFDFAVVEFSEREFTMHPASSLLIWVTDEEIPSQRRSVISTGVTLKREFELEMAFSEFETEMNGFNVLPVDRVDMFEADGKVFRDEYVSKIWYEFYRLPEGTPFGVVYSFEIREKPEKLFLVVECAENLDRITVNGHEAVFKKKGCTFTEEECFLDVNFGKMDITELVQVGKNIVVLEGKKSNNITGPGCHERVKNPENHRPTEVETIYLVGKFSLVNVDETKYVIDAPKTPDHKDITRSGYPFYVGSFTLRKTFEMKKDPKRRYFLKLNSVRAASVEVFLNEKFVGSLFWEPFMVEITDNLHDGKNELKLVLTNTLFNLIEANHKADVLEETFRRPWSFIDFEHHTDRYILLPFGLENAAVLSSFSP
On to B2, for which, in [10], the K0.5 was determined as 1.47 ± 0.14 mM and the kcat is 146.8 ± 6.1 s⁻¹.

B3: Tm_Ram106B (Thermotoga maritima MSB8) (protein)
chain: MNLKDLENPGVWYRPAPFWSWNDKLCEEELLRQIDEMYEKGYGGFFMHSRVGLVTEYLSEEWMRLVRSCAEHARKLGMLAWLYDEDKWPSGFAGGIVPLEKPEHRHKYLTLLKKDQIKPEDEILKKIERDGEEFYVVKRVMKLGDPWFNGTCYVDLLSRETTEAFLRSTHERYKKSCGDLFRVSIPGIFTDEPTYLRVHHPKETTLPWTERFPEEFLRRKGYDIRDHLEELFFNVKDYMKVRYDFFDVATSLFIENFTIPYAKWCEENGIFMTGHYMAEDTLRGQVEWIGAAMPHYEYMQIPGIDKLARHLEQVVTIKQVSSAAEQLGKKWVLCETFGTTGQHVSFLHRKWIADWQAVLGVTYINPHLSLYSMRGERKRDYPPNLFYQQPWWKNERFLSDYFARLNHIVTQGKREVKVLMIHPISSAWCVYSKFDDEIDKLNELFDTITKELVANKIDFHFGDEMILSKHGRVKEAKLRVGEYEYEVVVLPPLLNLKSSTVELLNSLAENGGKVFVLKDFRYGRFFPERVEGKKGRIEFLKKARVFETLEDLIEELKPFFSVDVLDTKTKENAKAVIAQKRVLEDGSYLLFLANTDIDREVHCHLELKEKRKHTYAIDLFNFKLVELKENEFVMFPASSVCIWVTDEEVPAEDEKVVSTGVLLEKEFDFETALNDFEVKMNSFNVLPVDRVEYFEAGGRVFRNEFVSKIWYEFYRLPDGTPFRVEYSFEVRKKPQKLFLVVECAENLDRITVNGREVRYERKSCIFNEEQNFLDVNFGKMEITDLVREGKNTVVLEGRKENNITGPGCHTRVKDPENHRPTEVETIYLVGDFSLVNVDETRYVIDAPKIPDHRDITRDGYPFYVGSFTLKKIFECKKDPGKRYFLKLNGVEAASVEVILNGKFLGVLFWRPFMIDITDALRNGKNELQLVLTNTLFNLIEANHKADVLEETFRRPKSFIDFEHHTDRYILLPFGLENVAVLSSSSR
On to B3, for which, in series [11], the K0.5 is on record as 1.94 ± 0.20 mM and the kcat was 217.8 ± 10.1 s⁻¹.
